In patent US20200131156A1, “ARYLSULFONYLPYROLECARBOXAMIDE DERIVATIVES AS Kv3 POTASSIUM CHANNEL ACTIVATORS” (H. Lundbeck A/S, priority 2018, published 2020):
Like-named read-outs stand apart in the source and are kept apart here. Each block holds one molecule with its values, some of them ahead of it.

Key:
[1] = target: hKv7.2/7.3 (Homo sapiens, UniProt O43525+O43526); assay: Off-target Kv7.2/7.3 activation, fluorescence-based ion flux assay (FDSS); type: cell-based; conditions: up to 30 μM
Method: (§1) The activity of selected compound examples at three key ion channel off targets was measured, namely Nav1.1, Kv1.1/1.2 and Kv7.2/7.3.
Effects of selected examples on activation of the voltage gated heteromeric potassium channel Kv7.2/7.3 was tested in a fluorescence-based ion flux assay at concentrations up to 30 μM.

[2] = target: hNav1.1 (Homo sapiens, UniProt P35498); assay: Off-target Nav1.1 electrophysiology (Qpatch), multiple state readouts; type: cell-based; conditions: resting, use-dependent and inactivated state readouts, up to 30 μM; for EC50: activation; for IC50: inhibition
Method: as §1
The voltage gated sodium channel, Nav1.1, is known to have state-dependent pharmacology, therefore, compound examples were tested for effects on inhibition or activation at the resting state channel, a use-dependent readout, and an inactivated state readout by electrophysiology, at concentrations up to 30 μM.

[3] = In vivo pharmacokinetic time profile in mice (plasma and brain); set-up: species or system mouse; conditions: for Kp / Cmax / half-life: male; for Kp: C57, mouse, brain, read-out: measured brain/plasma ratio; for Cmax / half-life: C57, plasma; for Cmax / half-life / Estimated unbound brain Cmax / Unbound plasma, Cmax: mouse; for half-life: read-out: T½ (converted)
Method: Male Sprague Dawley rats or male C57 mice from SLAC Laboratory Animal Co. Ltd., Shanghai, China or SIPPR/BK Laboratory Animal Co. Ltd., Shanghai, China were used for pharmacokinetic studies. Animals were group housed during acclimation and individually housed during in-life. The animal room environment was controlled (conditions: temperature 20 to 26° C., relative humidity 30 to 70%, 12 hours artificial light and 12 hours dark) and all animals have access to Certified Rodent Diet (Beijing KEAO XIELI Feed Co., Ltd. Beijing, P.R. China.) ad libitum. Animals were deprived of food overnight prior to dosing and fed approximately 4 hours post-dosing. Water was autoclaved before provided to the animals ad libitum.
For oral dosing, the dose formulation was administered via oral gavage.
Animals were anesthetized via isoflurane. At terminal time point, about 200 μL blood was collected from cardiac puncture or abdominal vein. All blood samples were transferred into microcentrifuge tubes containing 5 μL of K2EDTA (0.5 M) as anti-coagulant and placed on wet ice until processed for plasma by centrifugation (3,000 rpm for 5 minutes at 2 to 8° C.) within half an hour of collection and kept at −70±10° C. until LC/MSMS analysis
After blood collection, brain was harvested and washed twice with cold deionized water, and blotted on filter paper, weighted and frozen until processed. Brain samples were thawed and homogenized with 4-fold of cold water using Covaris (peak power 450.0, Duty Factor 20.0, Cycles/Burst 200). for 3 min, vortex for 10 second every 1 min. Samples were further stored at −79° C. (dilution factor=5) until bioanalysis

[4] = Unbound fraction in plasma; type: in vitro ADME, rat

EC50 [1]: > 30 µM | EC50 [2]: > 30 µM | IC50 [2]: > 30 µM | Kp [3]: 0.4 | Cmax ([3]; 3 mg/kg, PO administration, dose 3 (mg/mg), vehicle 10% HP-betaCD): 274 ng/mL | half-life ([3]; 3 mg/kg, PO administration, dose 3 (mg/mg)): 60 min | Cmax ([3]; 3 mg/kg, SC administration, dose 3 (mg/mg), vehicle 10% HP-betaCD): 1130 ng/mL | half-life ([3]; 3 mg/kg, SC administration, dose 3 (mg/mg)): 30 min | Cmax ([3]; 10 mg/kg, SC administration, dose 10 (mg/mg), vehicle 10% HP-betaCD): 6360 ng/mL | half-life ([3]; 10 mg/kg, SC administration, dose 10 (mg/mg)): 78 min | Cmax ([3]; 30 mg/kg, PO administration, dose 30 (mg/mg), vehicle 10% HP-betaCD): 7350 ng/mL | half-life ([3]; 30 mg/kg, PO administration, dose 30 (mg/mg)): 60 min | Estimated unbound brain Cmax ([3]; PO, dose 3 (mg/mg), based on brain/plasma ratio 0.4 and unbound fraction in brain 10%): 28 nM | Unbound plasma, Cmax ([3]; PO, dose 3 (mg/mg), unbound fraction in plasma 10%): 70 nM | Estimated unbound brain Cmax ([3]; PO, dose 30 (mg/mg), based on brain/plasma ratio 0.4 and unbound fraction in brain 10%): 753 nM | Unbound plasma, Cmax ([3]; PO, dose 30 (mg/mg), unbound fraction in plasma 10%): 1895 nM | Estimated unbound brain Cmax ([3]; SC, dose 3 (mg/mg), based on brain/plasma ratio 0.4 and unbound fraction in brain 10%): 116 nM | Unbound plasma, Cmax ([3]; SC, dose 3 (mg/mg), unbound fraction in plasma 10%): 291 nM | Estimated unbound brain Cmax ([3]; SC, dose 10 (mg/mg), based on brain/plasma ratio 0.4 and unbound fraction in brain 10%): 656 nM | Unbound plasma, Cmax ([3]; SC, dose 10 (mg/mg), unbound fraction in plasma 10%): 1639 nM | fraction unbound ([4]; rat PK table footnote): 0.1
SMILES: Cc1cnc(CNC(=O)c2ccn(S(=O)(=O)c3ccc(F)cc3C)c2)cn1 [Compound 90, 1-(4-fluoro-2-methylbenzene-1-sulfonyl)-N-[(5-methylpyrazin-2-yl)methyl]-1H-pyrrole-3-carboxamide]

EC50 [1]: > 30 µM | EC50 [2]: > 30 µM | IC50 [2]: > 30 µM | Kp ([3]; subcutaneous): 0.3 | half-life ([3]; SC administration, dose 3 (mg/mg) (Table 7)): 42 min | Cmax ([3]; SC administration, dose 3 (mg/mg), vehicle 10% HP-betaCD (Table 7)): 3020 ng/mL | half-life ([3]; SC administration, dose 30 (mg/mg) (Table 7)): 36 min | Cmax ([3]; SC administration, dose 30 (mg/mg), vehicle 10% HP-betaCD (Table 7)): 22000 ng/mL | Estimated unbound brain Cmax ([3]; SC, dose 3 (mg/mg), based on brain/plasma ratio 0.3 and unbound fraction in brain 11%): 289 nM | Unbound plasma, Cmax ([3]; SC, dose 3 (mg/mg), unbound fraction in plasma 8%): 700 nM | Estimated unbound brain Cmax ([3]; SC, dose 30 (mg/mg), based on brain/plasma ratio 0.3 and unbound fraction in brain 11%): 2100 nM | Unbound plasma, Cmax ([3]; SC, dose 30 (mg/mg), unbound fraction in plasma 8%): 5094 nM | fraction unbound ([4]; rat table footnote): 0.12
SMILES: Cc1ccc(S(=O)(=O)n2ccc(C(=O)NCc3ncco3)c2)cc1 [Compound 86, 1-(4-methylbenzene-1-sulfonyl)-N-[(1,3-oxazol-2-yl)methyl]-1H-pyrrole-3-carboxamide]
